Key:
Test in all cases: MIC / checkerboard with ATM
Parameters in all cases: key to Susceptibility category: S: susceptible; I: intermediate; R: resistant
PA-016, blaIMP = assay type: cell-based, P. aeruginosa; conditions: PA-016; Table S2
PA-021, blaIMP = assay type: cell-based, P. aeruginosa; conditions: PA-021, Table S2
PA-029, blaIMP = assay type: cell-based, P. aeruginosa; conditions: PA-029; Table S2
PA-042, blaIMP/NDM = assay type: cell-based, P. aeruginosa; conditions: PA-042, Table S2; for MIC: Pseudomonas aeruginosa, read-out: MIC value
PA-035, blaGES = assay type: cell-based, P. aeruginosa; conditions: PA-035, Table S2; for MIC: Pseudomonas aeruginosa, read-out: MIC value
PA-009, blaGES = assay type: cell-based, P. aeruginosa; conditions: PA-009, Table S2
PA-028, blaNDM = assay type: cell-based, P. aeruginosa; conditions: PA-028; Table S2
PA-039, blaNDM = assay type: cell-based, P. aeruginosa; conditions: PA-039, Table S2; for MIC: Pseudomonas aeruginosa, read-out: MIC value
PA-014, blaGES = assay type: cell-based, P. aeruginosa; conditions: PA-014, Table S2
PA-033, blaNDM = assay type: cell-based, P. aeruginosa; conditions: PA-033; Table S2
PA-034, blaNDM = assay type: cell-based, P. aeruginosa; conditions: PA-034; Table S2
PA-002, blaIMP = assay type: cell-based, P. aeruginosa; conditions: PA-002, Table S2; for MIC: Pseudomonas aeruginosa, read-out: MIC value
PA-031, blaNDM = assay type: cell-based, P. aeruginosa; conditions: PA-031; Table S2
PA-037, blaIMP/NDM = assay type: cell-based, P. aeruginosa; conditions: PA-037; Table S2
PA-026, blaNDM = assay type: cell-based, P. aeruginosa; conditions: PA-026, Table S2; for MIC: Pseudomonas aeruginosa, read-out: MIC value
PA-036, blaNDM = assay type: cell-based, P. aeruginosa; conditions: PA-036; Table S2
PA-027, blaIMP = assay type: cell-based, P. aeruginosa; conditions: PA-027; Table S2
PA-032, blaIMP = assay type: cell-based, P. aeruginosa; conditions: PA-032, Table S2
PA-040, blaNDM = assay type: cell-based, P. aeruginosa; conditions: PA-040; Table S2
[1] = test system: NDM-1-Producing P. aeruginosa (PA-017, blaNDM); assay type: cell-based; conditions: PA-017; Table S2
PA-038, blaNDM = assay type: cell-based, P. aeruginosa; conditions: PA-038; Table S2
PA-041, blaNDM = assay type: cell-based, P. aeruginosa; conditions: PA-041, Table S2
PA-025, blaNDM = assay type: cell-based, P. aeruginosa; conditions: PA-025; Table S2
PA-003, blaVIM = assay type: cell-based, P. aeruginosa; conditions: PA-003, Table S2; for MIC: Pseudomonas aeruginosa, read-out: MIC value
PA-044, blaNDM = assay type: cell-based, P. aeruginosa; conditions: PA-044; Table S2
PA-030, blaIMP = assay type: cell-based, P. aeruginosa; conditions: PA-030; Table S2
[2] = Pseudomonas aeruginosa, read-out: MIC value

Structure (SMILES)	Susceptibility category (PA-016, blaIMP)	Susceptibility category (PA-021, blaIMP)	Susceptibility category (PA-029, blaIMP)	Susceptibility category (PA-042, blaIMP/NDM)	Susceptibility category (PA-035, blaGES)	Susceptibility category (PA-009, blaGES)	Susceptibility category (PA-028, blaNDM)	Susceptibility category (PA-039, blaNDM)	Susceptibility category (PA-014, blaGES)	Susceptibility category (PA-033, blaNDM)	Susceptibility category (PA-034, blaNDM)	Susceptibility category (PA-002, blaIMP)	Susceptibility category (PA-031, blaNDM)	Susceptibility category (PA-037, blaIMP/NDM)	Susceptibility category (PA-026, blaNDM)	Susceptibility category (PA-036, blaNDM)	Susceptibility category (PA-027, blaIMP)	Susceptibility category (PA-032, blaIMP)	Susceptibility category (PA-040, blaNDM)	Susceptibility category [1]	further results
CO/N=C(\C(=O)N[C@@H]1C(=O)N2C(C(=O)[O-])=C(C[N+]3(C)CCCC3)CS[C@H]12)c1csc(N)n1 [FEP, cefepime, reference compound]	R	R	R	R	S	R	R	R	R	R	R	R	R	R	S	R	R	R	R	R	MIC (PA-042, blaIMP/NDM): > 16 µg/mL; MIC (PA-035, blaGES): 4 µg/mL; MIC (PA-002, blaIMP): > 16 µg/mL; MIC (PA-026, blaNDM): 8 µg/mL; Susceptibility category (PA-038, blaNDM): R; Susceptibility category (PA-041, blaNDM): R; Susceptibility category (PA-025, blaNDM): R; Susceptibility category (PA-003, blaVIM): R; MIC (PA-003, blaVIM): > 16 µg/mL; Susceptibility category (PA-044, blaNDM): R; Susceptibility category (PA-030, blaIMP): R
C[C@@H](O)[C@H]1C(=O)N2C(C(=O)O)=C(SCCN=CN)C[C@H]12 [IPM, imipenem, reference compound]	R	R	R	R	R	R	R	R	R	R	R	R	R	R	I	R	R	R	R	R	MIC (PA-042, blaIMP/NDM): > 8 µg/mL; MIC (PA-035, blaGES): 8 µg/mL; MIC (PA-002, blaIMP): > 8 µg/mL; MIC (PA-026, blaNDM): 4 µg/mL; Susceptibility category (PA-038, blaNDM): R; Susceptibility category (PA-041, blaNDM): R; Susceptibility category (PA-025, blaNDM): R; Susceptibility category (PA-003, blaVIM): R; MIC (PA-003, blaVIM): > 8 µg/mL; Susceptibility category (PA-044, blaNDM): R; Susceptibility category (PA-030, blaIMP): R
CC(C)(O/N=C(\C(=O)N[C@@H]1C(=O)N2C(C(=O)[O-])=C(C[n+]3ccccc3)CS[C@H]12)c1csc(N)n1)C(=O)O [CAZ, ceftazidime, reference compound]	R	R	R	R	R	R	R	R	R	R	R	R	R	R	R	R	R	S	R	R	MIC (PA-042, blaIMP/NDM): > 16 µg/mL; MIC (PA-035, blaGES): > 16 µg/mL; MIC (PA-002, blaIMP): > 16 µg/mL; MIC (PA-032, blaIMP; [2]): 8 µg/mL; Susceptibility category (PA-038, blaNDM): R; Susceptibility category (PA-041, blaNDM): R; Susceptibility category (PA-025, blaNDM): R; Susceptibility category (PA-003, blaVIM): S; MIC (PA-003, blaVIM): 4 µg/mL; Susceptibility category (PA-044, blaNDM): R; Susceptibility category (PA-030, blaIMP): R
NCC[C@H](O)C(=O)N[C@@H]1C[C@H](N)[C@@H](O[C@H]2O[C@H](CN)[C@@H](O)[C@H](O)[C@H]2O)[C@H](O)[C@H]1O[C@H]1O[C@H](CO)[C@@H](O)[C@H](N)[C@H]1O [AMK, amikacin, reference compound]	R	S	R	R	S	S	R	S	S	R	R	R	R	R	S	R	R	S	R	R	MIC (PA-021, blaIMP; [2]): 16 µg/mL; MIC (PA-035, blaGES): ≤ 4 µg/mL; MIC (PA-009, blaGES; [2]): 16 µg/mL; MIC (PA-039, blaNDM): ≤ 4 µg/mL; MIC (PA-014, blaGES; [2]): 8 µg/mL; Susceptibility category (PA-038, blaNDM): R; Susceptibility category (PA-041, blaNDM): R; Susceptibility category (PA-025, blaNDM): R; Susceptibility category (PA-003, blaVIM): R; Susceptibility category (PA-044, blaNDM): R; Susceptibility category (PA-030, blaIMP): R
CNC(C)C1CCC(N)C(OC2C(N)CC(N)C(OC3OCC(C)(O)C(NC)C3O)C2O)O1 (centres unmarked) [GEN, gentamicin, reference compound]	R	R	R	R	R	I	R	S	R	R	R	R	R	R	S	R	R	S	R	R	MIC (PA-039, blaNDM): ≤ 2 µg/mL; MIC (PA-002, blaIMP): > 8 µg/mL; MIC (PA-026, blaNDM): ≤ 2 µg/mL; Susceptibility category (PA-038, blaNDM): R; Susceptibility category (PA-041, blaNDM): S; MIC (PA-041, blaNDM; [2]): ≤ 2 µg/mL; Susceptibility category (PA-025, blaNDM): R; Susceptibility category (PA-003, blaVIM): R; MIC (PA-003, blaVIM): > 8 µg/mL; Susceptibility category (PA-044, blaNDM): R; Susceptibility category (PA-030, blaIMP): R

Source: article PMC11672637, “7-O-Carboxylic Acid-Substituted 3-O-Alkyl Difluoroquercetin; An Aztreonam-Potentiating Agent Against Carbapenemase-Producing Pseudomonas aeruginosa Through Simultaneous Inhibition of Metallo-β-Lactamase and Efflux Pump” (Antibiotics, 2024)
